Reference: patent publication US8507548B2, “Method for treating addiction using quercetin-containing compositions” (Quercegen Pharmaceuticals LLC, priority 2008, dated 2013)

Tests used:
[1] = test system: neuron cells; assay: re-uptake of neurotransmitters by neuron cells; assay type: cell-based
[2] = test system: withdrawal symptoms accompanied with addiction; conditions: e.g., alcohol abstinence-induced anxiety and convulsion; Joshi et al., J. Med. Food 2005; cited from earlier work

SMILES: O=c1c(O)c(-c2ccc(O)c(O)c2)oc2cc(O)cc(O)c12 [Quercetin]
- re-uptake of neurotransmitters by neuron cells [1]: block re-uptake of neurotransmitters by neuron cells
- effect on withdrawal symptoms accompanied with addiction [2]: alleviate withdrawal symptoms
